From article PMC10385826, “Towards Symmetric Thioamides: Microwave-Aided Synthesis of Terephthalic Acid Derivatives” (Pharmaceuticals, 2023)

details: not given

melting point | Structure (SMILES)
185 °C | COC(=O)C(Cc1ccc(O)cc1)NC(=O)c1ccc(C(=O)NC(Cc2ccc(O)cc2)C(=O)OC)cc1 (stereo not drawn)
115 °C | COC(=O)C(NC(=O)c1ccc(C(=O)NC(C(=O)OC)C(C)C)cc1)C(C)C (stereo not drawn)
169 °C | COC(=O)C(CO)NC(=O)c1ccc(C(=O)NC(CO)C(=O)OC)cc1 (stereo not drawn)
86 °C | COC(=O)CNC(=S)c1ccc(C(=S)NCC(=O)OC)cc1
174 °C | COC(=O)C(C)NC(=S)c1ccc(C(=S)NC(C)C(=O)OC)cc1 (stereo not drawn)
170 °C | COC(=O)C(Cc1ccc(O)cc1)NC(=S)c1ccc(C(=S)NC(Cc2ccc(O)cc2)C(=O)OC)cc1 (stereo not drawn)
160 °C | COC(=O)C(NC(=S)c1ccc(C(=S)NC(C(=O)OC)C(C)C)cc1)C(C)C (stereo not drawn)
179 °C | COC(=O)C(CO)NC(=S)c1ccc(C(=S)NC(CO)C(=O)OC)cc1 (stereo not drawn)

parameters: method as in PMID 16673812; details: oral administration; cited from earlier work

Structure (SMILES) | LD50
O=C(O)c1ccc(C(=O)O)cc1 [TPA, Terephthalic acid] | > 5000 mg/kg
